The source of these data is patent US9181253B2 (The United States of America, as represented by the …, priority 2008, dated 2015).

One assay addresses human A1 receptors (Homo sapiens (Human), UniProt P30542). The assay is described as follows: Binding assay at human A1 receptors (Example 2). The conditions noted are these: CHO cells expressing human A1AR; radioligand [3H]CCPA or [3H]R-PIA; n = 3-5; read-out: Affinity (Ki, nM) A1.
The next assay concerns the target human A2A receptors (Homo sapiens (Human), UniProt P29274). The assay is described as follows: Binding assay at human A2A receptors (Example 2). The conditions noted are these: HEK cells expressing human A2AAR; radioligand [3H]CGS21680; n = 3-5; read-out: Affinity (Ki, nM) A2A.
In the next assay the target is human A3AR (Homo sapiens (Human), UniProt P0DMS8). In words: [35S]GTPγS binding assay, membranes of CHO cells expressing human A3AR. The conditions noted are these: stimulation measured by [35S]GTPγS binding assay. In kind it is biochemical.
The target of assay [1] is T1, hA1AR (Homo sapiens (Human), UniProt P30542). In words: Radioligand membrane binding at hA1AR (Example 6). The note with it: CHO cells expressing hA1AR; [3H]R-PIA; n = 3-5; read-out: Affinity Ki, nM A1. Here is the method: (§1) In addition, 800 μg/mL Geneticin and 500 μg/mL hygromycin were added to the A2A media and to the A1 and A3 media, respectively. […] The concentration of protein was determined using a BCA Protein Assay Kit from Pierce Biotechnology (Rockford, Ill.).
(§2) Radioligand binding assays at A1, A2A, and A3ARs were performed according to the procedures described previously.
(§3) All of the filters were washed 3 times with Tris-HCl, pH 7.5. […] Filters for A3AR binding were counted using a PerkinElmer Cobra II γ-counter.
(§4) Binding and functional parameters were calculated using Prism 5.0 software (GraphPAD, San Diego, Calif., USA). IC50 values obtained from competition curves were converted to Ki values using the Cheng-Prusoff equation. Data were expressed as mean±standard error.

Another assay has as its target hA2AAR (Homo sapiens (Human), UniProt P29274). In words: Radioligand membrane binding at hA2AAR (Example 6). The note with it: for Ki: HEK293 cells expressing hA2AAR, [3H]CGS21680, n = 3-5, read-out: Affinity Ki, nM A2A. Here is the method: as §1, §2, §3, §4
For another assay, the target named is hA3AR (Homo sapiens (Human), UniProt P0DMS8). In words: Radioligand membrane binding at hA3AR (Example 6). The note with it: CHO cells expressing hA3AR; [125I]I-AB-MECA; n = 3-5; read-out: Affinity Ki, nM A3.
Assay [2] addresses T1, hA1AR. In words: A1AR functional assay, inhibition of forskolin-stimulated cyclic AMP production in AR-transfected CHO cells. The format is cell-based. The conditions noted are these: for % Inhibition, cyclic AMP A1: maximal efficacy at 10 μM, in comparison to effect (100%) of full agonist CPA at 10 μM, n = 3-5; for inhibition at 10 µM: CHO, read-out: % Inhibition, cyclic AMP A1.
Experimental: CHO cells that expressed the recombinant human or rat A3AR or the human A1 or A2BAR were harvested by trypsinization. After centrifugation and resuspended in medium, cells were planted in 24-well plates in 1.0 mL medium. […] The reaction was terminated by removing the supernatant, and cells were lysed upon the addition of 200 μL of 0.1 M ice-cold HCl. The cell lysate was resuspended and stored at −20° C. For determination of cyclic AMP production, protein kinase A (PKA) was incubated with [^3H]cyclic AMP (2 nM) in K2HPO4/EDTA buffer (K2HPO4, 150 mM; EDTA, 10 mM), 20 μL of the cell lysate, and 30 μL 0.1 M HCl or 50 μL of cyclic AMP solution (0-16 pmol/200 μL for standard curve). Bound radioactivity was separated by rapid filtration through Whatman GF/C filters and washed once with cold buffer. Bound radioactivity was measured by liquid scintillation spectrometry.
Intracellular cAMP levels were measured with a competitive protein binding method.

T1 sequence (P30542 whole entry): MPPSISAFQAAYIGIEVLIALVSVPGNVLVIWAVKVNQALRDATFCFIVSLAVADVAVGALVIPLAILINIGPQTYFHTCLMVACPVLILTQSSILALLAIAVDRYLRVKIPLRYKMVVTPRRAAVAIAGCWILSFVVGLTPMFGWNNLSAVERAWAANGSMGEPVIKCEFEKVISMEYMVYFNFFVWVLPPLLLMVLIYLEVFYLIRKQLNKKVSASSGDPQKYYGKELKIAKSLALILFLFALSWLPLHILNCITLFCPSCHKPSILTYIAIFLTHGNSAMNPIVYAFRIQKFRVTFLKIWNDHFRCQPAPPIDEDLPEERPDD
Sequence of human A1 receptors (P30542 whole entry): as above
Sequence of human A3AR (P0DMS8 whole entry): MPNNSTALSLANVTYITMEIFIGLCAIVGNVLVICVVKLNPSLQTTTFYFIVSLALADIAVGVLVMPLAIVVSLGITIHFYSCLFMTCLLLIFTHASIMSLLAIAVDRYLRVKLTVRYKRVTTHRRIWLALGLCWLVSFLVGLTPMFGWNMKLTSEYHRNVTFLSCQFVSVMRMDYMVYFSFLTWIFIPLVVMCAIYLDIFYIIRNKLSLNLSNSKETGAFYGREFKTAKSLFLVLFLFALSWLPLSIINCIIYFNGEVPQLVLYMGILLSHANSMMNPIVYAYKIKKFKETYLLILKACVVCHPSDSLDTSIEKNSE
Sequence of hA3AR (P0DMS8 whole entry): as above
Sequence of human A2A receptors (P29274 whole entry): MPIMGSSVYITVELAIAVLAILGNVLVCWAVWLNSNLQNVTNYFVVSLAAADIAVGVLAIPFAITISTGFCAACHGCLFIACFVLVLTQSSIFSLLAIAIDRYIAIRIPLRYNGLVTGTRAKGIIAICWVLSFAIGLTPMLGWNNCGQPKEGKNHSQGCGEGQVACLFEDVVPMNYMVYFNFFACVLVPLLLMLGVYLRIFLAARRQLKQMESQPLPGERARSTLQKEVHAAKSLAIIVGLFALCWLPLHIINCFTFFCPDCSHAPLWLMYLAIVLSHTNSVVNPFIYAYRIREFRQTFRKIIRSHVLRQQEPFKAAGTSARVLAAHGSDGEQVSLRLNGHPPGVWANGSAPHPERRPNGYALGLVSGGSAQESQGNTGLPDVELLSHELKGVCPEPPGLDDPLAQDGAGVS
Sequence of hA2AAR (P29274 whole entry): as above
Experimental for hA3AR: Chinese hamster ovary (CHO) cells stably expressing either the recombinant hA1 or hA3AR and human embryonic kidney (HEK) 293 cells stably expressing the human (h) A2AAR were cultured in DMEM and F12 (1:1), supplemented with 10% fetal bovine serum, 100 units/mL penicillin, 100 μg/mL streptomycin, and 2 μmol/mL glutamine. In addition, 800 μg/mL Geneticin and 500 μg/mL hygromycin were added to the A2A media and to the A1 and A3 media, respectively. […] The concentration of protein was determined using a BCA Protein Assay Kit from Pierce Biotechnology (Rockford, Ill.).
The mixtures were incubated at 25° C. for 60 min. Binding reactions were terminated by filtration through Whatman GF/B filters under a reduced pressure using a MT-24 cell harvester (Brandell, Gaithersburg, Md.). Filters were washed three times with 5 ml of 50 mM ice-cold Tris-HCl buffer (pH 7.5). […] All of the filters were washed 3 times with Tris-HCl, pH 7.5. […] Filters for A3AR binding were counted using a PerkinElmer Cobra II γ-counter.
Text for human A1 receptors: (§5) The reaction was terminated by filtration with GF/B filters.
Text for human A2A receptors: as §5
Experimental for human A3AR: [^35S]GTPγS binding assay: [^35S]GTPγS binding was measured by a variation of the method described. […] Each assay tube consisted of 200 μL buffer containing 50 mM Tris HCl (pH 7.4), 1 mM EDTA, 1 mM MgCl2, 1 μM GDP, 1 mM dithiothreitol, 100 mM NaCl, 3 U/ml ADA, 0.2 nM [^35S]GTPγS, 0.004% 3-[(3-cholamidopropyl)dimethylammonio]propanesulfonate (CHAPS), and 0.5% bovine serum albumin. Incubations were started upon addition of the membrane suspension (CHO cells stably expressing either the native human A1AR or A3AR, 5 μg protein/tube) to the test tubes, and they were carried out in duplicate for 30 min at 25° C. The reaction was stopped by rapid filtration through Whatman GF/B filters, pre-soaked in 50 mM Tris HCl, 5 mM MgCl2 (pH 7.4) containing 0.02% CHAPS. The filters were washed twice with 3 mL of the same buffer, and retained radioactivity was measured using liquid scintillation counting. Non-specific binding of [^35S]GTPγS was measured in the presence of 10 μM unlabelled GTPγS.

For the molecule `COc1ccc(O)c(CNc2nc(Cl)nc3c2ncn3[C@H]2[C@H](O)[C@H](O)[C@@H]3C[C@@H]32)c1` [Compound 12b, (1′R,2′R,3′S,4′R,5′S)-4′-[2-Chloro-6-(2-hydroxy-5-methoxybenzylamino)purine]-2′,3′-O-dihydroxybicyclo-[3.1.0]hexane], the Ki on human A1 receptors amounted to 1110 ± 300 nM; on human A2A receptors it was 6870 ± 1440 nM. In addition, at human A3AR, the “% Efficacy A3” value was 0.4 ± 1.3%.
On to `O[C@@H]1[C@H](O)[C@@H]2C[C@@H]2[C@H]1n1cnc2c(NCc3cccc(Br)c3)nc(Cl)nc21` [Compound 9b, (1′R,2′R,3′S,4′R,5′S)-4′-[2-Chloro-6-(3-bromobenzylamino)purine]-2′,3′-O-dihydroxybicyclo-[3.1.0]hexane], for which the Ki on human A1 receptors worked out at 1760 ± 1010 nM.
Take `O[C@@H]1[C@H](O)[C@@H]2C[C@@H]2[C@H]1n1cnc2c(NCc3cccc(Cl)c3)nc(Cl)nc21` [Compound 8b, (1′R,2′R,3′S,4′R,5′S)-4′-[2-Chloro-6-(3-chlorobenzylamino)purine]-2′,3′-O-dihydroxybicyclo-[3.1.0]hexane]: the Ki on human A1 receptors was 3070 ± 1500 nM; at human A2A receptors, 4510 ± 910 nM. In addition, at human A3AR, the “% Efficacy A3” value is 2.9 ± 3.7%.
Regarding `O[C@@H]1[C@H](O)[C@@H]2C[C@@H]2[C@H]1n1cnc2c(N[C@@H]3C[C@H]3c3ccccc3)nc(Cl)nc21` (relative stereo) [Compound 13b, (1′R,2′R,3′S,4′R,5′S)-4′-[2-Chloro-6-(trans-2-phenylcyclopropylamino)purine]-2′,3′-O-dihydroxybicyclo-[3.1.0]hexane], on human A3AR, the “% Efficacy A3” value was 9.7 ± 4.1%.
With `O[C@@H]1[C@H](O)[C@@H]2C[C@@H]2[C@H]1n1cnc2c(N[C@H](C3CCC3)C3CC3)nc(Cl)nc21` [Compound 217, (1R,2R,3S,4R,5S)-4-(2-Chloro-6-((S)-cyclopropylcyclobutylmethylamino)-9H-purin-9-yl)bicyclo[3.1.0]hexane-2,3-diol], the Ki is 120 ± 40 nM at hA1AR [1], 6450 ± 720 nM on hA2AAR and 2790 ± 720 nM on hA3AR. Further, the “% Inhibition, cyclic AMP A1” value at hA1AR [2] is reported as 18.1 ± 6.8%.
On to `COc1ccc(OC)c(CNc2nc(Cl)nc3c2ncn3[C@H]2[C@H](O)[C@H](O)[C@@H]3C[C@@H]32)c1` [Compound 11b, (1′R,2′R,3′S,4′R,5′S)-4′-[2-Chloro-6-(2,5-dimethoxybenzylamino)purine]-2′,3′-O-dihydroxybicyclo-[3.1.0]hexane], for which, at human A2A receptors, the Ki came out at 2620 ± 730 nM. Moreover, the “% Efficacy A3” value at human A3AR is 4.6 ± 3.8%.
For “(1R,2R,3S,4R,5S)-4-(2-Chloro-6-(endo-norbornyl)-9H-purin-9-yl)bicyclo[3.1.0]hexane-2,3-diol [Compound 113]”, the values for the inhibitory constant (Ki) on hA1AR [1], at hA2AAR and on hA3AR were 82.6 ± 15.8 nM, 2450 ± 90 nM and 315 ± 48 nM, respectively. On hA1AR [2], the “% Inhibition, cyclic AMP A1” value came to 62.1 ± 18.5%.
In the case of `CCC(CC)Nc1nc(Cl)nc2c1ncn2[C@H]1[C@H](O)[C@H](O)[C@@H]2C[C@@H]21` [Compound 118, (1R,2R,3S,4R,5S)-4-(2-Chloro-6-(pentan-3-ylamino)-9H-purin-9-yl)bicyclo[3.1.0]hexane-2,3-diol], the Ki at hA1AR [1] came to 78.8 ± 15.6 nM; at hA2AAR, 3700 ± 300 nM; at hA3AR, 52 ± 14 nM. Besides, the inhibition at 10 µM at hA1AR [2] was 28.6 ± 3.8%.
As to `O[C@@H]1[C@H](O)[C@@H]2C[C@@H]2[C@H]1n1cnc2c(NC3CCCCC3)nc(Cl)nc21` [Compound 110, (1R,2R,3S,4R,5S)-4-(2-Chloro-6-(cyclohexylamino)-9H-purin-9-yl)bicyclo[3.1.0]hexane-2,3-diol], the Ki was 140 ± 10 nM at hA1AR [1], 2720 ± 450 nM on hA2AAR and 500 ± 120 nM at hA3AR. The inhibition at 10 µM at hA1AR [2] was 38 ± 17.6%.
The like results for `CC[C@H](Nc1nc(Cl)nc2c1ncn2[C@H]1[C@H](O)[C@H](O)[C@@H]2C[C@@H]21)C1CC1` [Compound 213, (1R,2R,3S,4R,5S)-4-(2-Chloro-6-((S)-1-cyclopropylpropylamino)-9H-purin-9-yl)bicyclo[3.1.0]hexane-2,3-diol] were, in that order, 150 ± 10 nM, 4910 ± 430 nM, 780 ± 70 nM and 57.9 ± 1.1%.
For “(1R,2R,3S,4R,5S)-4-(2-Chloro-6-(exo-norbornyl)-9H-purin-9-yl)bicyclo[3.1.0]hexane-2,3-diol [Compound 114]”, the Ki at hA1AR [1] came out at 200 ± 30 nM; at hA2AAR, 4080 ± 170 nM; at hA3AR it was 236 ± 43 nM. The “% Inhibition, cyclic AMP A1” value at hA1AR [2] is on record as 27.8 ± 6.2%.
For the molecule `Nc1nc(Cl)nc2c1ncn2[C@H]1[C@H](O)[C@H](O)[C@@H]2C[C@@H]21` [Compound 107, (1R,2R,3S,4R,5S)-4-(6-Amino-2-chloro-9H-purin-9-yl)-bicyclo[3.1.0]hexane-2,3-diol], the results for the Ki on hA1AR [1], on hA2AAR and on hA3AR were 350 ± 90 nM, 3140 ± 450 nM and 160 ± 42 nM, respectively. Moreover, the inhibition at 10 µM on hA1AR [2] is 68.1 ± 4.4%.
Turning to `O[C@@H]1[C@H](O)[C@@H]2C[C@@H]2[C@H]1n1cnc2c(NC3CCCCCC3)nc(Cl)nc21` [Compound 111, (1R,2R,3S,4R,5S)-4-(2-Chloro-6-(cycloheptylamino)-9H-purin-9-yl)bicyclo[3.1.0]hexane-2,3-diol], the values for the inhibition constant Ki on hA1AR [1], at hA2AAR and at hA3AR were 230 ± 30 nM, 3930 ± 520 nM and 560 ± 90 nM, respectively. Moreover, the inhibition at 10 µM on hA1AR [2] worked out at 48.1 ± 10.2%.
For `O[C@@H]1[C@H](O)[C@@H]2C[C@@H]2[C@H]1n1cnc2c(NC3CC3)nc(Cl)nc21` [Compound 108, (1R,2R,3S,4R,5S)-4-(2-Chloro-6-(cyclopropylamino)-9H-purin-9-yl)bicyclo[3.1.0]hexane-2,3-diol], the results for the inhibitory constant (Ki) on hA1AR [1], at hA2AAR and on hA3AR were 210 ± 30 nM, 3700 ± 340 nM and 12.1 ± 3.4 nM, respectively. Moreover, the inhibition at 10 µM on hA1AR [2] came out at 79 ± 18.8%.
Regarding `O[C@@H]1[C@H](O)[C@@H]2C[C@@H]2[C@H]1n1cnc2c(N[C@H](CC3CC3)C3CC3)nc(Cl)nc21` [Compound 218, (1R,2R,3S,4R,5S)-4-(2-Chloro-6-((R)-1,2-dicyclopropylethylamino)-9H-purin-9-yl)bicyclo[3.1.0]hexane-2,3-diol], the results for the Ki at hA1AR [1], at hA2AAR and on hA3AR were 490 ± 90 nM, 4840 ± 400 nM and 1760 ± 210 nM, respectively. The inhibition at 10 µM on hA1AR [2] was found to be 18.4 ± 2.1%.
Consider `CC(C)[C@H](Nc1nc(Cl)nc2c1ncn2[C@H]1[C@H](O)[C@H](O)[C@@H]2C[C@@H]21)C1CC1` [Compound 215, (1R,2R,3S,4R,5S)-4-(2-Chloro-6-((S)-1-cyclopropyl-2-methyl-propylamino)-9H-purin-9-yl)bicyclo[3.1.0]hexane-2,3-diol], for which the Ki on hA1AR [1] is 150 ± 50 nM; on hA2AAR, 3650 ± 370 nM; at hA3AR, 1720 ± 140 nM. The inhibition at 10 µM on hA1AR [2] turned out to be 20.8 ± 6.1%.
As to `CC(C)Nc1nc(Cl)nc2c1ncn2[C@H]1[C@H](O)[C@H](O)[C@@H]2C[C@@H]21` [Compound 117, (1R,2R,3S,4R,5S)-4-(2-Chloro-6-(isopropylamino)-9H-purin-9-yl)bicyclo[3.1.0]hexane-2,3-diol], the Ki on hA1AR [1] was 72.2 ± 16.4 nM; at hA3AR, 12 ± 1 nM. On hA2AAR (percent inhibition of radioligand binding at 10 μM), the “(% inhibition) A2A” value was “(39%)”. Also, at hA1AR [2], the inhibition at 10 µM was 50.5 ± 6.4%.
